Results as given in PMC8021118, “Shared recognition of citrullinated tenascin-C peptides by T and B cells in rheumatoid arthritis” (JCI Insight, 2021).
Values joined by “and” are separate entries in the source; they are usually repeats but may differ in a detail not shown here. Equal values may be shown once. Where a SMILES comes first, the peptide text is derived from it. Where no end group is shown, it is not given here. [ ]: non-standard residue; d: D form. Cit = NC(=O)NCCC[C@H](N)C(=O)O

What was measured:
[1] = system: Synovial fluid mononuclear cells (SFMC) from HLA-DRB1*04:01 RA patients; assay: FluoroSpot cytokine secretion by synovial fluid mononuclear cells stimulated with peptide; format: cell-based, human; conditions: for IFN-γ secretion by SFMC (in words): 20 μg/mL peptide, 48 hours, 3-color FluoroSpot, RA n = 7, 15-mer T cell peptides; for IL-10 production by SFMC (in words) / IL-17 production by SFMC (in words): peptide stimulation 48 hours, three-color fluorospot, RA n=7
[2] = system: serum IgG antibodies of RA subjects; assay: ELISA for serum antibodies against peptide; format: binding, human; conditions: Cys-flanked ELISA peptides
Protocol: (§1) ELISAs were used to detect antibodies against citrullinated peptides in sera from patients in Autoantibody Cohorts 1 and 2 (Supplemental Table 2). Peptides used in the assay were synthesized by either GenScript or Pepceutical and are described in Supplemental Table 5. The ELISAs were conducted as previously described ([18], [26]). In brief, 96-well Nunc Maxisorp plates were coated with 10 μg/mL peptide in PBS, blocked with 2% BSA, and incubated with sera diluted 1:100. Bound antibodies were detected with an HRP-conjugated anti–human IgG Fc monoclonal antibody (6043HRP, Stratech). A standard curve of positive sera was used to calculate relative antibody titers in arbitrary units (AU) for each sample. The CCP2 ELISA for Autoantibody Cohort 1 was performed as by the manufacturer’s instruction (FCCP600, Axis-Shield). Cross-reactivity to cit-TNC56, cit-TNC17, or cit-TNC5 was analyzed in human sera reactive to cit-TNC56 or cit-TNC17. Sera were diluted 1:100, incubated with 1, 10, and 100 μg/mL of peptides for 2 hours and centrifuged at 10,000g for 10 minutes at room temperature, and the supernatant was added to peptide-coated plates for analysis by ELISA as described above. Positivity was defined by the cut-off of the 98th percentile of HC samples from Autoantibody Cohort 1.

[3] = system: anti-cit-TNC antibodies in double-reactive RA sera; assay: Cross-reactivity (peptide absorption/inhibition) ELISA; format: binding, human; conditions: for Absorption by the homologous peptide (in words): sera double-reactive for cit-TNC17 and cit-TNC56
Protocol: Sera that were double-reactive with peptides cit-TNC17 or cit-TNC56 and cit-TNC56, cit-TNC17, or cit-TNC5 were diluted 1:100, incubated with 1, 10, and 100 μg/mL of peptides for 2 hours and centrifuged at 10,000g for 10 minutes, and the supernatant then added to peptide-coated plates for analysis by ELISA. […] (B) Limited cross-reactivity between anti–cit-TNC56 and both anti–cit-TNC17 and anti–cit-TNC5. Each panel was run on a separate plate.
as §1

[4] = molecular target: HLA-DRB1*04:01 (Homo sapiens, UniProt P01903+P01911, A100K/A169T/F76Y/I96L/K127E/L162R/M171V/N62H/P40V/Q125Y/R42H/S133A/S149N/S66Y/V115G/V209L/W38E); assay: Peptide competition binding assay to HLA-DRB1*04:01
[5] = system: CD4+ T cells in PBMC from HLA-DRB1*04:01+ subjects; assay: In vitro expansion of peptide-specific CD4+ T cells from PBMC and HLA class II tetramer staining; format: cell-based, human; conditions: for Responders (% in RA): RA subjects with positive in vitro response (>0.1% of CD4+ T cells tetramer+) of total tested, 10 μg/mL peptide, 14 days, n = 14, TNC44 and TNC59 n = 6; for Immunogenicity: Supplemental Table 1, ability to elicit an immune response in vitro (tetramer staining after expansion)
Description: TNC is a large protein (2110 amino acids in length) composed of an N-terminal assembly domain, 14.5 epidermal growth factor–like repeats (EGF-L), 8 constant fibronectin type III–like repeats (FNIII), and an additional 9 alternatively spliced FNIII elements, and a C-terminal fibrinogen-like globe (FBG) ([16]). Using a previously described algorithm ([9], [24]), we scanned the entire length of the TNC monomer and identified 64 arg-containing peptides with motifs that would predict to permit binding to HLA-DRB1*04:01 in either their noncitrullinated native form, citrullinated form, or both. Based on these predictions, we synthesized the citrullinated versions of these peptides and tested their ability to bind HLA-DRB1*04:01 and to elicit CD4^+ T cell expansion in vitro. Of the peptides synthesized, 8 cit-TNC peptides bound to HLA-DRB1*04:01 with moderate to high affinity (Table 1). Among these, cit-TNC17, cit-TNC22, cit-TNC45, cit-TNC50, and cit-TNC56 were determined to be the most immunogenic, based on their ability to drive epitope-specific T cell expansion, as measured by HLA class II tetramer (Tmr) staining of peripheral blood mononuclear cells (PBMC) from HLA-DRB1*04:01^+ subjects following 2 weeks of in vitro expansion (Table 1 and Supplemental Figure 1; supplemental material available online with this article; https://doi.org/10.1172/jci.insight.145217DS1).
Recombinant HLA-DRB1*04:01 protein was produced by the BRI Tetramer Core as previously described ([56]). Soluble HLA-DRB1*04:01 monomer was purified from insect cell culture supernatants and biotinylated at a sequence-specific site using biotin ligase (Avidity) prior to dialysis into phosphate storage buffer. The biotinylated monomer was loaded with 0.2 mg/mL of peptide by incubating at 37°C for 72 hours in the presence of 2.5 mg/mL n-octyl β-D-glucopyranoside and 1 mM Pefabloc SC (Sigma-Aldrich). Peptide-loaded monomers were conjugated into Tmrs using fluorescently labeled streptavidin (Invitrogen) for 6–18 hours at room temperature at a molar ratio of 8:1.
Cryopreserved PBMCs from RA and healthy subjects were cultured at 5 × 10^6 cells/well in a 48-well plate in RPMI-1640 + 10% HPS with 10 μg/mL of peptide. IL-2 (Novartis) was added at 325 IU/mL on day 6. On day 14, cells were stained for expression of Tmr-PE, CD25 APC (BD Biosciences), and CD4 FITC (BioLegend) (Supplemental Table 8) and then run on a FACSCanto. The data were analyzed by FlowJo software version 10.

[6] = system: CD4+ memory T cells in peripheral blood; assay: Ex vivo detection of peptide-specific memory CD4+ T cells by multiplex HLA class II tetramer staining; format: cell-based, human; conditions: for Frequencies of peptide-specific memory CD4+ T cells: mean ± SEM, SEM
[7] = Autoantibody Cohort 1: HLA-DRB1*04:01, CCP+ RA sera (n = 17), diluted 1:100, cut-off 98th percentile of HC
[8] = Autoantibody Cohort 2, CCP+ RA (n = 55)
[9] = Autoantibody Cohort 2, CCP– RA (n = 43)

Compound: CEYEVSLIS[Cit][Cit]GDMSSNPAC [cit-TNC17, Cys-flanked citrullinated TNC17 peptide used for detection of antibodies by ELISA]
- IFN-γ secretion by SFMC (in words) [1]: elicited IFN-γ secretion by SFMC
- IL-10 production by SFMC (in words) [1]: produced
- Percentage of subjects seropositive for antibodies to peptide [2, 7]: 100%
- Percentage of subjects seropositive for antibodies to peptide [2, 8]: 63.6% and 64%
- Percentage of subjects seropositive for antibodies to peptide [2, 9]: 2.3%
- Cross-reactivity with cit-TNC5 (in words) ([3]; double-reactive sera): no cross-reactivity
- Absorption by the homologous peptide (in words) [3]: efficient
- maximum inhibition ([3]; serum 6, cit-TNC17 versus cit-TNC56, sera 1:100, 1, 10 and 100 μg/mL peptide, 2 hours): 22%

Compound: CC(C)C[C@H](NC(=O)[C@H](CCCNC(N)=O)NC(=O)[C@H](Cc1ccccc1)NC(=O)CNC(=O)[C@H](CC(=O)O)NC(=O)[C@@H]1CCCN1)C(=O)N[C@@H](CO)C(=O)N[C@@H](Cc1c[nH]c2ccccc12)C(=O)N[C@H](C(=O)N[C@@H](C)C(=O)N[C@@H](CC(=O)O)C(=O)N[C@@H](CCC(=O)O)C(=O)NCC(=O)N[C@H](C(=O)N[C@@H](Cc1ccccc1)C(=O)O)C(C)C)[C@@H](C)O [TNC45] (H-PDGF[Cit]LSWTADEGVF-OH)
- EC50 [4]: 17100 nM
- Responders (% in RA) [5]: 50%
- Immunogenicity [5]: Yes
- Percentages of subjects with a detectable ex vivo response ([6]; Healthy control subjects (n=7)): 71%
- Frequencies of peptide-specific memory CD4+ T cells ([6]; Healthy control subjects (n=7)): 2.6±1.0 /million memory CD4+ T cells
- Percentages of subjects with a detectable ex vivo response ([6]; RA subjects (n=9)): 100%
- Frequencies of peptide-specific memory CD4+ T cells ([6]; RA subjects (n=9)): 22.6±6.4 /million memory CD4+ T cells

Compound: CTPLAKFD[Cit]Y[Cit]LNYSLPTGC [cit-TNC22, Cys-flanked citrullinated TNC22 peptide used in ELISA]
- IFN-γ secretion by SFMC (in words) [1]: elicited IFN-γ secretion by SFMC
- IL-10 production by SFMC (in words) [1]: produced
- Percentage of subjects seropositive for antibodies to peptide [2, 7]: 35%

Compound: CQGQYEL[Cit]VDL[Cit]DHGETAFC [cit-TNC56, Cys-flanked citrullinated TNC56 peptide used in ELISA]
- IFN-γ secretion by SFMC (in words) [1]: elicited IFN-γ secretion by SFMC
- IL-17 production by SFMC (in words) [1]: produced
- Percentage of subjects seropositive for antibodies to peptide [2, 7]: 53%
- Percentage of subjects seropositive for antibodies to peptide [2, 8]: 45.5%
- Percentage of subjects seropositive for antibodies to peptide [2, 9]: 11.6%
- Absorption by the homologous peptide (in words) [3]: efficient
- maximum inhibition ([3]; serum 2, cit-TNC56 versus cit-TNC17, sera 1:100, 1, 10 and 100 μg/mL peptide, 2 hours): 24.8%
- maximum inhibition ([3]; serum 2, cross-reactivity between cit-TNC56 and cit-TNC5): 38.7%
- maximum inhibition ([3]; serum 6, citTNC56 versus cit-TNC17, sera 1:100, 1, 10 and 100 μg/mL peptide, 2 hours): 43%

Compound: CVSDATPDGF[Cit]LSWTADEGC [cit-TNC45, Cys-flanked citrullinated TNC45 peptide used in ELISA]
- IFN-γ secretion by SFMC (in words) [1]: elicited IFN-γ secretion by SFMC
- Percentage of subjects seropositive for antibodies to peptide [2, 7]: 29%

Compound: CC(C)C[C@H](NC(=O)[C@H](CCCNC(N)=O)NC(=O)[C@H](Cc1ccc(O)cc1)NC(=O)[C@H](CCCNC(N)=O)NC(=O)[C@H](CC(=O)O)NC(=O)[C@@H](N)Cc1ccccc1)C(=O)N[C@@H](CC(N)=O)C(=O)N[C@@H](Cc1ccc(O)cc1)C(=O)N[C@@H](CO)C(=O)N[C@@H](CC(C)C)C(=O)N1CCC[C@H]1C(=O)N[C@H](C(=O)NCC(=O)N[C@@H](CCC(N)=O)C(=O)N[C@@H](Cc1c[nH]c2ccccc12)C(=O)O)[C@@H](C)O [TNC22] (H-FD[Cit]Y[Cit]LNYSLPTGQW-OH)
- EC50 [4]: 700 nM
- Responders (% in RA) [5]: 46%
- Immunogenicity [5]: Yes
- Percentages of subjects with a detectable ex vivo response ([6]; Healthy control subjects (n=7)): 71%
- Frequencies of peptide-specific memory CD4+ T cells ([6]; Healthy control subjects (n=7)): 3.0±1.2 /million memory CD4+ T cells
- Percentages of subjects with a detectable ex vivo response ([6]; RA subjects (n=9)): 56%
- Frequencies of peptide-specific memory CD4+ T cells ([6]; RA subjects (n=9)): 3.8±1.9 /million memory CD4+ T cells

Compound: CPTAQVESF[Cit]ITYVPITGGC [cit-TNC50, Cys-flanked citrullinated TNC50 peptide used in ELISA]
- IL-17 production by SFMC (in words) [1]: produced

Compound: CC[C@H](C)[C@H](NC(=O)[C@H](CCCNC(N)=O)NC(=O)[C@H](Cc1ccccc1)NC(=O)[C@H](CO)NC(=O)[C@H](CCC(=O)O)NC(=O)[C@@H](N)C(C)C)C(=O)N[C@H](C(=O)N[C@@H](Cc1ccc(O)cc1)C(=O)N[C@H](C(=O)N1CCC[C@H]1C(=O)N[C@H](C(=O)N[C@H](C(=O)NCC(=O)NCC(=O)N[C@H](C(=O)O)[C@@H](C)O)[C@@H](C)O)[C@@H](C)CC)C(C)C)[C@@H](C)O [TNC50] (H-VESF[Cit]ITYVPITGGT-OH)
- EC50 [4]: 1000 nM
- Responders (% in RA) [5]: 50%
- Immunogenicity [5]: Yes
- Percentages of subjects with a detectable ex vivo response ([6]; Healthy control subjects (n=7)): 71%
- Frequencies of peptide-specific memory CD4+ T cells ([6]; Healthy control subjects (n=7)): 1.5±0.6 /million memory CD4+ T cells
- Percentages of subjects with a detectable ex vivo response ([6]; RA subjects (n=9)): 100%
- Frequencies of peptide-specific memory CD4+ T cells ([6]; RA subjects (n=9)): 9.6±3.1 /million memory CD4+ T cells

Compound: CEHSIQFAEMKL[Cit]PSNF[Cit]NLEG[Cit][Cit]KRC (cysteine pairing not given here) [cit-TNC5, previously published cit-TNC5 peptide, positive control in antibody ELISA, reference compound]
- Percentage of subjects seropositive for antibodies to peptide [2, 7]: 47%
